Source: PubChem BioAssay AID248 (DTP/NCI, 2004)
“And” between values parts separate entries of the source, which are not always exact repeats. Equal values may be shown once. Inconclusive results and toxic doses are left out. Rule as the data show it: active = T/C of 150% or more; inactive = T/C below 125%.

Test system: L1210 leukemia ip in BDF1 mice, survival T/C
Assay: NCI In Vivo Anticancer Drug Screen. Data for tumor model L1210 Leukemia (intraperitoneal) in B6D2F1 (BDF1) mice
Conditions: endpoint: mean survival time, higher = longer survival
Summary of the method: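 Each compound was tested against a transplantable tumor grown in mice. The endpoint was survival, with treated animals benchmarked against vehicle controls as a simple ratio.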

[1] = dose: 100.0 mg/kg/injection, schedule: Q01DX001 (ip), vehicle: saline
[2] = dose: 200.0 mg/kg/injection, schedule: Q01DX001 (ip), vehicle: saline
[3] = dose: 400.0 mg/kg/injection, schedule: Q01DX001 (ip), vehicle: saline
[4] = dose: 400.0 mg/kg/injection, schedule: Q01DX001 (ip), vehicle: carboxymethylcellulose (CMC)
[5] = dose: 100.0 mg/kg/injection, schedule: Q01DX001 (ip), vehicle: Klucel (hydroxypropylcellulose) (HPC)
[6] = dose: 200.0 mg/kg/injection, schedule: Q01DX001 (ip), vehicle: Klucel (hydroxypropylcellulose) (HPC)
[7] = dose: 400.0 mg/kg/injection, schedule: Q01DX001 (ip), vehicle: Klucel (hydroxypropylcellulose) (HPC)

Measured: T/C

C[C@]12CC[C@H]3[C@@H](CC[C@]4(O)C[C@@H](O)CC[C@]34/C=N/O)[C@@]1(O)CC[C@@H]2C1=COC(=O)C1
inactive: dose: 1.87 mg/kg/injection, schedule: Q01DX009 (ip), vehicle: carboxymethylcellulose (CMC) 93 % of control | dose: 3.75 mg/kg/injection, schedule: Q01DX009 (ip), vehicle: carboxymethylcellulose (CMC) 104 % of control | dose: 7.5 mg/kg/injection, schedule: Q01DX009 (ip), vehicle: carboxymethylcellulose (CMC) 106 % of control | dose: 30.0 mg/kg/injection, schedule: Q01DX009 (ip), vehicle: carboxymethylcellulose (CMC) 104 % of control | dose: 60.0 mg/kg/injection, schedule: Q01DX009 (ip), vehicle: carboxymethylcellulose (CMC) 93 % of control

OCC[N+]12CN3CN(CN(C3)C1)C2
inactive: dose: 100.0 mg/kg/injection, schedule: Q04DX002 (ip), vehicle: saline 113 % of control | dose: 200.0 mg/kg/injection, schedule: Q04DX002 (ip), vehicle: saline 106 % of control | dose: 400.0 mg/kg/injection, schedule: Q04DX002 (ip), vehicle: saline 106 % of control

COc1ccc(C2(Br)C(=O)NN=C2C)cc1 (centres undefined)
inactive: [1] 95 % of control | [2] 100 % of control | [3] 95 % of control

N#Cc1ccc[nH]1
inactive: dose: 100.0 mg/kg/injection, schedule: Q01DX001 (sc), vehicle: carboxymethylcellulose (CMC) 121 % of control | dose: 177.0 mg/kg/injection, schedule: Q01DX001 (ip), vehicle: carboxymethylcellulose (CMC) 108 % of control | dose: 200.0 mg/kg/injection, schedule: Q01DX001 (sc), vehicle: carboxymethylcellulose (CMC) 110 % of control | dose: 266.0 mg/kg/injection, schedule: Q01DX001 (ip), vehicle: carboxymethylcellulose (CMC) 96 % of control | [4] 102 % of control

CSCCCCCCSC
inactive: dose: 50.0 mg/kg/injection, schedule: Q01DX009 (ip), vehicle: saline 101 % of control | dose: 100.0 mg/kg/injection, schedule: Q01DX009 (ip), vehicle: saline 96 % of control | dose: 200.0 mg/kg/injection, schedule: Q01DX009 (ip), vehicle: saline 90 % of control

CCOC(=O)c1nc2c(C)nc(N)nc2[nH]c1=O
inactive: [5] 107 % of control | [6] 111 % of control | [7] 96 % of control

O=C(N/N=C/c1cccc([N+](=O)[O-])c1)C(O)C(O)C(O)C(O)CO (centres undefined)
inactive: dose: 100.0 mg/kg/injection, schedule: Q01DX001 (ip), vehicle: carboxymethylcellulose (CMC) 97 % of control | dose: 100.0 mg/kg/injection, schedule: Q01DX009 (ip), vehicle: carboxymethylcellulose (CMC) 102 % of control | dose: 100.0 mg/kg/injection, schedule: Q04DX002 (ip), vehicle: carboxymethylcellulose (CMC) 100 % of control | dose: 100.0 mg/kg/injection, schedule: Q04DX003 (ip), vehicle: carboxymethylcellulose (CMC) 94 % of control | dose: 200.0 mg/kg/injection, schedule: Q01DX001 (ip), vehicle: carboxymethylcellulose (CMC) 104 % of control | dose: 200.0 mg/kg/injection, schedule: Q01DX009 (ip), vehicle: carboxymethylcellulose (CMC) 104 % of control and 91 % of control | dose: 200.0 mg/kg/injection, schedule: Q04DX002 (ip), vehicle: carboxymethylcellulose (CMC) 96 % of control and 106 % of control | dose: 200.0 mg/kg/injection, schedule: Q04DX003 (ip), vehicle: carboxymethylcellulose (CMC) 100 % of control | [4] 95 % of control | dose: 400.0 mg/kg/injection, schedule: Q01DX009 (ip), vehicle: carboxymethylcellulose (CMC) 94 % of control | dose: 400.0 mg/kg/injection, schedule: Q04DX002 (ip), vehicle: carboxymethylcellulose (CMC) 103 % of control and 91 % of control | dose: 400.0 mg/kg/injection, schedule: Q04DX003 (ip), vehicle: carboxymethylcellulose (CMC) 94 % of control

Cc1c2c(cc3c4ccccc4n(CC4CO4)c13)C(c1ccc(Cl)cc1)=NCC2 (centres undefined)
inactive: dose: 37.5 mg/kg/injection, schedule: Q04DX003 (ip), vehicle: water 104 % of control | dose: 75.0 mg/kg/injection, schedule: Q04DX003 (ip), vehicle: water 100 % of control | dose: 150.0 mg/kg/injection, schedule: Q04DX003 (ip), vehicle: water 92 % of control | dose: 300.0 mg/kg/injection, schedule: Q04DX003 (ip), vehicle: water 96 % of control

CCCCCCCCCCC(O)CCCCCCCCCC
inactive: dose: 100.0 mg/kg/injection, schedule: Q01DX009 (ip), vehicle: saline with Tween-80 96 % of control | dose: 200.0 mg/kg/injection, schedule: Q01DX009 (ip), vehicle: saline with Tween-80 105 % of control | dose: 400.0 mg/kg/injection, schedule: Q01DX009 (ip), vehicle: saline with Tween-80 93 % of control

CCCNS(=O)(=O)c1ccc(C(=S)OCC)cc1
inactive: [5] 98 % of control | [6] 98 % of control | [7] 94 % of control

COc1ccc(/C=N\NC(=O)c2ccncc2)cc1OC
inactive: dose: 50.0 mg/kg/injection, schedule: Q04DX002 (ip), vehicle: Klucel (hydroxypropylcellulose) (HPC) 101 % of control | dose: 100.0 mg/kg/injection, schedule: Q04DX002 (ip), vehicle: Klucel (hydroxypropylcellulose) (HPC) 106 % of control | dose: 200.0 mg/kg/injection, schedule: Q04DX002 (ip), vehicle: Klucel (hydroxypropylcellulose) (HPC) 109 % of control | dose: 400.0 mg/kg/injection, schedule: Q04DX002 (ip), vehicle: Klucel (hydroxypropylcellulose) (HPC) 103 % of control

CSC(CC(=O)O)C(=O)O (centres undefined)
inactive: dose: 75.0 mg/kg/injection, schedule: Q01DX001 (ip), vehicle: saline 97 % of control | dose: 150.0 mg/kg/injection, schedule: Q01DX001 (ip), vehicle: saline 108 % of control

NC1C(O)C(N)C(O)C(O)C1O (centres undefined)
inactive: dose: 100.0 mg/kg/injection, schedule: Q04DX003 (ip), vehicle: saline sonified 97 % of control | dose: 200.0 mg/kg/injection, schedule: Q04DX003 (ip), vehicle: saline sonified 97 % of control | dose: 400.0 mg/kg/injection, schedule: Q04DX003 (ip), vehicle: saline sonified 95 % of control

NCCNCCN1CC1
inactive: dose: 10.0 mg/kg/injection, schedule: Q04DX002 (ip), vehicle: saline 104 % of control | dose: 20.0 mg/kg/injection, schedule: Q04DX002 (ip), vehicle: saline 115 % of control | dose: 40.0 mg/kg/injection, schedule: Q04DX002 (ip), vehicle: saline 106 % of control

CON(C)CCOC(=O)c1ccc(N)cc1
inactive: dose: 50.0 mg/kg/injection, schedule: Q04DX002 (ip), vehicle: saline with Tween-80 104 % of control | dose: 100.0 mg/kg/injection, schedule: Q04DX002 (ip), vehicle: saline with Tween-80 107 % of control | dose: 100.0 mg/kg/injection, schedule: Q04DX003 (ip), vehicle: saline with Tween-80 89 % of control | dose: 200.0 mg/kg/injection, schedule: Q04DX002 (ip), vehicle: saline with Tween-80 104 % of control | dose: 200.0 mg/kg/injection, schedule: Q04DX003 (ip), vehicle: saline with Tween-80 95 % of control | dose: 400.0 mg/kg/injection, schedule: Q04DX002 (ip), vehicle: saline with Tween-80 104 % of control | dose: 400.0 mg/kg/injection, schedule: Q04DX003 (ip), vehicle: saline with Tween-80 99 % of control

C=COCCCCCC(C)C
inactive: dose: 50.0 mg/kg/injection, schedule: Q01DX009 (ip), vehicle: Klucel (hydroxypropylcellulose) (HPC) 96 % of control | dose: 100.0 mg/kg/injection, schedule: Q01DX009 (ip), vehicle: Klucel (hydroxypropylcellulose) (HPC) 106 % of control | dose: 100.0 mg/kg/injection, schedule: Q04DX003 (ip), vehicle: Klucel (hydroxypropylcellulose) (HPC) 107 % of control | dose: 200.0 mg/kg/injection, schedule: Q01DX009 (ip), vehicle: Klucel (hydroxypropylcellulose) (HPC) 91 % of control | dose: 200.0 mg/kg/injection, schedule: Q04DX003 (ip), vehicle: Klucel (hydroxypropylcellulose) (HPC) 105 % of control | dose: 400.0 mg/kg/injection, schedule: Q04DX003 (ip), vehicle: Klucel (hydroxypropylcellulose) (HPC) 104 % of control

O=NN(CC(F)(F)F)C(=O)NC1CCCCC1 (tested in a mixture with another compound)
inactive: dose: 8.0 mg/kg/injection, schedule: Q01DX001 (ip), vehicle: other 100 % of control | dose: 16.0 mg/kg/injection, schedule: Q01DX001 (ip), vehicle: other 95 % of control | dose: 31.0 mg/kg/injection, schedule: Q01DX001 (ip), vehicle: other 94 % of control | dose: 62.0 mg/kg/injection, schedule: Q01DX001 (ip), vehicle: other 97 % of control | dose: 125.0 mg/kg/injection, schedule: Q01DX001 (ip), vehicle: other 101 % of control | dose: 250.0 mg/kg/injection, schedule: Q01DX001 (ip), vehicle: other 94 % of control | dose: 375.0 mg/kg/injection, schedule: Q01DX001 (ip), vehicle: other 101 % of control

CCOC(=O)C1OC1C1c2cccc3cccc(c23)C1C1OC1C(=O)OCC (centres undefined)
inactive: [1] 107 % of control | [2] 94 % of control | [3] 102 % of control
